These results are taken from patent US5416118A, “Bicyclic amides as inhibitors of acyl-coenzyme A: cholesterol acyl transferase” (Schering Corporation, priority 1993, dated 1995).

Molecules are shown by their SMILES.

For one test, the system named is ACAT. Briefly: ACAT Assay (in vitro). It counts as biochemical. The conditions noted are these: dose = 10 μM; rat liver microsomes. As to the method: This assay measures the activity of ACAT by measuring the ACAT-mediated transfer of tritiated oleic acid from acyl-CoA to cholesterol to give labelled cholesterol oleate. Rat liver microsomes are used as the source of ACAT. Assays are performed in round bottom microtiterplates using a total incubation volume of 50 μL. Each incubation well receives 10 μL assay buffer (0.5M KHPO4, 10 μM dithiothreitol, pH 7.4), 7.5 μL of 40 mg/mL BSA (Bovine Serum Albumin) and 12.5 μg of microsomal protein. The test compound (in sufficient amount to bring the final concentration to from 0.1 to 25 μM), reference compound, or vehicle control is added and the final volume brought to 47 μL. The microtiterplate is then floated on the surface of a 37° C. water bath for fifteen minutes. Incubations are started by the addition of 3 μL ^3 H-acyl CoA (1 μCi/well, final concentration of 10 μM acyl CoA). The plate is then returned to the water bath for 15 minutes. The incubations are then terminated by application of 15 μL from each incubation to individual lanes on a thin layer plate (Silica Gel GF 20×20 cm). Standards are applied to several lanes so that the cholesterol ester band can be identified. After drying, the plates are eluted with 90:10:1 petroleum ether:ether:HOAc. The standards are visualized via iodine vapor, and the regions corresponding to cholesterol ester are scraped into 7 mL scintillation vials. 4 mL of scintillant are added to each vial, and the radioactivity quantified. Background count is determined by the boiled controls. Full activity is determined by activity in the presence of vehicle. The percent inhibition is calculated by subtracting the background from both control and test samples, and the test value is calculated as a percentage of the control. For IC50 determinations, the inhibition is plotted against drug doses on a log scale and the concentration at which 50% inhibition is obtained is determined.
(§1) Using the assay methods described above, the compounds of Examples 1-9 were tested for in vitro ACAT inhibitory activity and for the ability to lower the level of cholesteryl esters in vivo.
(Microsomes from liver hold many membrane-bound enzymes, among them those of drug oxidation.)

In another test the test system is cholesteryl esters. Briefly: In Vivo Assay of Hypolipidemic Agents Using the Hyperlipidemic Hamster. The conditions noted are these: Mesocricetus auratus, po, 168 h, 50 mpk, oral gavage once daily, 7 days, versus control; read-out: % Reduction in cholesteryl esters. As to the method:
In Vivo Assay of Hypolipidemic Agents Using the Hyperlipidemic Hamster
Hamsters are separated into groups of six and given a control cholesterol diet (Pudna Chow #5001 containing 0.5% cholesterol) for seven days. Diet consumption is monitored to determine dietary cholesterol exposure in the face of test compounds. The animals are dosed with the test compound once daily beginning with the initiation of diet. Dosing is by oral gavage of 0.2 mL of corn oil alone (control group) or solution (or suspension) of test compound in corn oil. All animals moribund or in poor physical condition are euthanized. After seven days, the animals are anesthetized by […] of ketamine and sacrificed by decapitation. Blood is collected into vacutainer tubes containing EDTA for plasma lipid analysis and the liver excised for tissue lipid analysis. Data is reported as percent reduction of lipid versus control.
as §1

With `Cc1cc([C@H]2Cc3ccccc3[C@H]2NC(=O)C(c2ccccc2)c2ccccc2)cc(C)c1O` (single isomer, unassigned) [Example 9A, (+)-cis-N-[2-(3',5'-dimethyl-4'-hydroxyphenyl)indanyl]-α-phenylbenzeneacetamide], the “ACAT % Inhibition” value in the test with ACAT amounted to 97%. The change in vivo at 50 mg/kg with cholesteryl esters is -60%.
